In PubChem BioAssay (NCI):
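Assay format: 96-well plates, 48-hour exposure. At the GI50, growth is halved. Definition used: TGI = concentration required for complete inhibition of growth.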

Assays:
Experiment in all cases: growth of human tumour cells (NCI), 48 h
MALME-3M melanoma = tested on: MALME-3M melanoma
CCRF-CEM leukemia = tested on: CCRF-CEM leukemia
RPMI-8226 leukemia = tested on: RPMI-8226 leukemia
SK-MEL-5 melanoma = tested on: SK-MEL-5 melanoma
SK-MEL-2 melanoma = tested on: SK-MEL-2 melanoma
UACC-257 melanoma = tested on: UACC-257 melanoma
UACC-62 melanoma = tested on: UACC-62 melanoma
SK-MEL-28 melanoma = tested on: SK-MEL-28 melanoma
K-562 leukemia = tested on: K-562 leukemia
COLO 205 colon = tested on: COLO 205 colon
CAKI-1 renal = tested on: CAKI-1 renal
BT-549 breast = tested on: BT-549 breast
HOP-92 NSCLC = tested on: HOP-92 NSCLC
HCT-116 colon = tested on: HCT-116 colon
MDA-MB-231 breast = tested on: MDA-MB-231 breast
HCT-15 colon = tested on: HCT-15 colon
LOX IMVI melanoma = tested on: LOX IMVI melanoma
A549 NSCLC = tested on: A549 NSCLC
MCF7 breast = tested on: MCF7 breast
HOP-62 NSCLC = tested on: HOP-62 NSCLC
OVCAR-4 ovarian = tested on: OVCAR-4 ovarian
SF-295 CNS = tested on: SF-295 CNS
TK-10 renal = tested on: TK-10 renal
NCI/ADR-RES ovarian = tested on: NCI/ADR-RES ovarian
SNB-19 CNS = tested on: SNB-19 CNS
OVCAR-3 ovarian = tested on: OVCAR-3 ovarian
UO-31 renal = tested on: UO-31 renal
SW-620 colon = tested on: SW-620 colon
SF-268 CNS = tested on: SF-268 CNS

N#Cc1ccc(/C=N/NC(=O)c2[nH]c3ccc(Br)cc3c2-c2ccccc2)s1
TGI (MALME-3M melanoma): 24.9 µM
GI50 (CCRF-CEM leukemia): 173 nM
TGI (CCRF-CEM leukemia): > 100 µM
GI50 (RPMI-8226 leukemia): 149 nM
TGI (RPMI-8226 leukemia): > 20.9 µM
GI50 (SK-MEL-5 melanoma): 272 nM
TGI (SK-MEL-5 melanoma): 1230 nM
GI50 (SK-MEL-2 melanoma): 451 nM
TGI (SK-MEL-2 melanoma): 16.2 µM
GI50 (UACC-257 melanoma): 344 nM
TGI (UACC-257 melanoma): 12.9 µM
GI50 (UACC-62 melanoma): 139 nM
TGI (UACC-62 melanoma): 6.99 µM
GI50 (SK-MEL-28 melanoma): 847 nM
TGI (SK-MEL-28 melanoma): > 37.4 µM
GI50 (K-562 leukemia): 109 nM
TGI (K-562 leukemia): > 100 µM
GI50 (COLO 205 colon): 1690 nM
TGI (COLO 205 colon): 4.86 µM
GI50 (CAKI-1 renal): 374 nM
TGI (CAKI-1 renal): 17.2 µM
GI50 (BT-549 breast): 250 nM
TGI (BT-549 breast): 1330 nM
GI50 (HOP-92 NSCLC): 645 nM
TGI (HOP-92 NSCLC): 11.6 µM
GI50 (HCT-116 colon): 118 nM
TGI (HCT-116 colon): 11.1 µM
GI50 (MDA-MB-231 breast): 545 nM
TGI (MDA-MB-231 breast): 4 µM
GI50 (HCT-15 colon): 129 nM
TGI (HCT-15 colon): 9.51 µM
GI50 (LOX IMVI melanoma): 309 nM
TGI (LOX IMVI melanoma): 1430 nM
GI50 (A549 NSCLC): 379 nM
TGI (A549 NSCLC): 13 µM
GI50 (MCF7 breast): 110 nM
TGI (MCF7 breast): 5.87 µM
GI50 (HOP-62 NSCLC): 519 nM
TGI (HOP-62 NSCLC): 11.6 µM
GI50 (OVCAR-4 ovarian): 783 nM
TGI (OVCAR-4 ovarian): 30.2 µM
GI50 (SF-295 CNS): 41.4 nM
TGI (SF-295 CNS): 2330 nM
GI50 (TK-10 renal): 1930 nM
TGI (TK-10 renal): 23.8 µM
GI50 (NCI/ADR-RES ovarian): 118 nM
TGI (NCI/ADR-RES ovarian): 2090 nM
GI50 (SNB-19 CNS): 439 nM
TGI (SNB-19 CNS): 16.7 µM
GI50 (OVCAR-3 ovarian): 367 nM
TGI (OVCAR-3 ovarian): 15.7 µM
GI50 (UO-31 renal): 275 nM
TGI (UO-31 renal): 17.6 µM
GI50 (SW-620 colon): 182 nM
TGI (SW-620 colon): 14.9 µM
GI50 (SF-268 CNS): 1580 nM
TGI (SF-268 CNS): > 64.9 µM
